Experimental data reported in patent US9138457B2, “Therapeutic modulation of ocular surface lubrication” (THE REGENTS OF THE UNIVERSITY OF CALIFORNIA, priority 2008, dated 2015).
Where two headings read alike, the source gives them in different places.

System: PRG4 mRNA
Conditions: primary human corneal epithelial cells; for increase in PRG4 mRNA levels relative to the control levels at Day 0: 10 nM DHT
Protocol: Cells were grown in keratinocyte serum free media until reaching about 80% confluence. Cells (n=3 wells/treatment/experiment) were then incubated with either vehicle or 10 nM dihydrotestosterone (DHT) for up to 5 days. At designated times cells were processed for total RNA isolation and analysis of PRG4 mRNA mRNA by RT-PCR.
Methods. Cells were grown in keratinocyte serum free media until reaching about 80% confluence. Cells (n=3 wells/treatment/experiment) were then incubated with either vehicle or 10 nM dihydrotestosterone (DHT) for up to 5 days. At designated times cells were processed for total RNA isolation and analysis of PRG4 mRNA mRNA by RT-PCR. Results.

SMILES: C[C@]12CCC(=O)C[C@@H]1CC[C@@H]1[C@@H]2CC[C@]2(C)[C@@H](O)CC[C@@H]12 [DHT, dihydrotestosterone]
- increase in PRG4 mRNA levels relative to the control levels at Day 0 (3 days of hormone exposure): 10.3 fold
- increase in PRG4 mRNA levels relative to the control levels at Day 0 (4 days of hormone exposure): 3.6 fold
- increase in PRG4 mRNA levels relative to the control levels at Day 0 (5 days of hormone exposure): 2.8 fold
- increase in PRG4 mRNA content relative to that of vehicle-treated controls (another experiment, treatment of cells for 5 days with DHT): 46 fold
